Data published in paper PMC4074510 (Neuron, 2014).

Experiments:
PIP5K1C = PIP5K1C (Homo sapiens, UniProt O60331); experiment: microfluidic mobility shift assay with fluorescein-PI; assay type: biochemical
SGK1 = molecular target: T1, SGK1 (Homo sapiens, UniProt O00141); experiment: KINOMEscan competitive binding at […]; conditions: read-out: % binding remaining at 10 μM
T1 sequence (O00141 1-431): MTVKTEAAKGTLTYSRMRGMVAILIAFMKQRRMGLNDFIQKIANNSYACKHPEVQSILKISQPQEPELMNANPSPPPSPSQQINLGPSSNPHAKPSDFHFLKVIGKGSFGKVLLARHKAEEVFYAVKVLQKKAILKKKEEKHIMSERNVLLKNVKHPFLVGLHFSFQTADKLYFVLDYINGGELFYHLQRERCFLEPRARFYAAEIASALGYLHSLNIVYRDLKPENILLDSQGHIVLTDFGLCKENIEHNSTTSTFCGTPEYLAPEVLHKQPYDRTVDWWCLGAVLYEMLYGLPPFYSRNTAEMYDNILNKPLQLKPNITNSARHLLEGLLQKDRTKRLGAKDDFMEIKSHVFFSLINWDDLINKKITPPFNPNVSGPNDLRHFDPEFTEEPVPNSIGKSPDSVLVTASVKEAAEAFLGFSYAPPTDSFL

[1] = molecular target: T2, PIP4K2C (Phosphatidylinositol-5-phosphate 4-kinase, type II, gamma) (Homo sapiens, UniProt Q8TBX8); experiment: KINOMEscan competitive binding assay, dose-response
T2 sequence (Q8TBX8 2-421): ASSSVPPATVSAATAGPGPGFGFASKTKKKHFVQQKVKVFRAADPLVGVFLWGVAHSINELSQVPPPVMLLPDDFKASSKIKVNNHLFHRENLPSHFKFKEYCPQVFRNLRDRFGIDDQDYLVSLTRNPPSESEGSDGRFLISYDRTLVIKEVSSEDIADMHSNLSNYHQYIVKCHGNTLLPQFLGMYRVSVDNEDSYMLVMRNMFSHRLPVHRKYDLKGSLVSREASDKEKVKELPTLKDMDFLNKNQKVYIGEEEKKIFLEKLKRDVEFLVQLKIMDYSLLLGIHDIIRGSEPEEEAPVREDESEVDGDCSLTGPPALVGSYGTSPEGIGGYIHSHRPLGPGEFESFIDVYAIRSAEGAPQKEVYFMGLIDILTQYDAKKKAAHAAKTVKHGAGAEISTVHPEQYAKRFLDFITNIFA

Chain of PIP5K1C (O60331 whole entry): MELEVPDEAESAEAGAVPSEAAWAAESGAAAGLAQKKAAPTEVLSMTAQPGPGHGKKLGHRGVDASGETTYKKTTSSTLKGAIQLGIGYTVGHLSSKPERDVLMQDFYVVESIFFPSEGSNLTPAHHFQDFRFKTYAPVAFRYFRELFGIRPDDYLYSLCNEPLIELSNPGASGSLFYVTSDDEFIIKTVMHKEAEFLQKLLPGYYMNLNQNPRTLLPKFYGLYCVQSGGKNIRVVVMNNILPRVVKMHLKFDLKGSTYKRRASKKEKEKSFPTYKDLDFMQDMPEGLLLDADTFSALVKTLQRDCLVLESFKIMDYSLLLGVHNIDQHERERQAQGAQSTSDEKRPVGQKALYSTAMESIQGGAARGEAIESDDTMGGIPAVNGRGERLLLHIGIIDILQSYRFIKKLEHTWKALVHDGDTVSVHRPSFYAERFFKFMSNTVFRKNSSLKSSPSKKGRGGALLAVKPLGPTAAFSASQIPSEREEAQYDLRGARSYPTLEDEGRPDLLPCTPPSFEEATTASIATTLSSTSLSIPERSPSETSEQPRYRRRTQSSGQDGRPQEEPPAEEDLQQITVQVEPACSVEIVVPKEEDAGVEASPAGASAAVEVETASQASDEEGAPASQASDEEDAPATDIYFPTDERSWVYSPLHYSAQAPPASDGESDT

Work on `NC(=O)c1nc(Nc2ccccc2)sc1NC(=O)C1CCCCC1` [UNC3230, 5-(cyclohexanecarboxamido)-2-(phenylamino)thiazole-4-carboxamide] yielded an IC50 (PIP5K1C) of about 41 nM, a remaining binding at 10 µM (SGK1) of 8% and a Kd [1] of under 200 nM.
